Assay results taken from patent publication US20240279202A1 (NURIX THERAPEUTICS, INC., priority 2021, published 2024).

Target: T1, ITK (Mus musculus, UniProt Q03526)
T1 construct: mice were sacrificed and splenocytes were isolated and used to prepare protein lysates; from tissue; host or cells: mouse splenocytes (spleen) after oral dosing
T1 sequence (Q03526 1-625): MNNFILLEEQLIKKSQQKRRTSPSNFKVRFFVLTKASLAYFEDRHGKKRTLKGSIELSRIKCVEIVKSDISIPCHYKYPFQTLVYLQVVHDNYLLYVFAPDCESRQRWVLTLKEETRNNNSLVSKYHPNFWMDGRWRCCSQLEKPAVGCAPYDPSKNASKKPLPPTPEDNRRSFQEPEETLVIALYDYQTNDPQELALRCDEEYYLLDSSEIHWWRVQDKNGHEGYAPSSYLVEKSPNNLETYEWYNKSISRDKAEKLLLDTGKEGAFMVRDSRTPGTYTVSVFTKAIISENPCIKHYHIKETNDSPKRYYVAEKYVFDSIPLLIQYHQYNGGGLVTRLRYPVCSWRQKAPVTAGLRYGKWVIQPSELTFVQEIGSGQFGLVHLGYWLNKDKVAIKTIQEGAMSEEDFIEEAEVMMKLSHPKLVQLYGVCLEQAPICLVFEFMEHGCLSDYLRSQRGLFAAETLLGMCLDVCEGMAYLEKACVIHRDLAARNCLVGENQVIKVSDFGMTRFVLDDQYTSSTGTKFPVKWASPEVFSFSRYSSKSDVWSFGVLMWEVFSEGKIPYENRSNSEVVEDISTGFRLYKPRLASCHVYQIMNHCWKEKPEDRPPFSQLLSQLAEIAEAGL
Assay: Mouse PD assay for ITK degradation (Western blot, splenocytes after oral administration)
Format: in vivo
Details: for ITK (%) 90 mpk PO, 6 h: percent ITK remaining in mouse splenocytes relative to vehicle
Procedure: Compounds 1, 3, 7, and 42 were formulated and administered at 90 mg/kg to mice by oral gavage (PO). Blood was collected at defined time points (after 1, 2, and 6 hours) after compounds administration to determine PK parameters. Concentration increased through 6 hours. Six hours later mice were sacrificed and splenocytes were isolated and used to prepare protein lysates. Total protein levels were determined in the lysates using the BCA assay according to standard methods. Equal amounts of protein were then analyzed by Western blot to determine the level of ITK expression in each sample. ITK band intensities were measured using Alpha View software and the percent of ITK remaining in each test animal was determined relative to the mean of ITK levels in vehicle control samples.
After 6 hours, splenocytes cells were harvested. ITK was evaluated by Western blotting.
Compounds 43, 4, 5, 10, 11, 12, 44, 14, 3, and 13 were administered to mice orally. After 6 hours, splenocytes cells were harvested. ITK was evaluated by Western blotting. Media was removed and cell pellets were lysed in 100 uL lysis buffer (RIPA buffer (Fisher, PI89901), cOmplete Mini EDTA-free protease inhibitor (Sigma 11836170001), Protease Inhibitor Cocktail (Sigma, P2714), Phosphatase Inhibitor Cocktail 2 and 3 (Sigma, P5726 and P0044), Benzonase (Sigma, E1014)). Cells were lysed overnight at −20° C. Following thaw, cells were centrifuged for 10 min at 13000 rpm, then transferred to new tube. Protein levels were determined by BCA Assay performed according to manufacturer's protocol (EMID Millipore, cat. no. 71285-3). Samples were combined with (4×) LDS Sample Buffer and (10×) Reducing Agent and H2O to equally load 20 ug protein per lane of a 26-well NuPAGE 4-12% Bis-Tris protein gel (1.0 mm, Thermo cat. no. NP0326). Samples were separated by running gels at constant 150 V in NuPAGE MES SDS Running Buffer. Following electrophoresis, proteins were transferred to nitrocellulose membranes using an iBlot Gel Transfer Device and iBlot Gel Transfer Stacks (Thermo cat. no. IB21001 and IB301001) and transfer method P3 (20V for 7 min). Membranes were blocked for 1 hr in 5% milk solution (TBS (0.2% Tween-20)). Following blocking, membranes were incubated with primary antibody (1:1000 CST ITK (2F12) #2380) overnight at 4° C. with gentle shaking. Blots were washed 2× in TBS (0.2% Tween-20), 30 min per wash. Following washes, blots were incubated in secondary HRP-conjugated antibody (Promega anti-Mouse IgG (H+L) HRP cat. no. W4021), 1:5000 in 5% milk solution (TBS (0.2% Tween-20)), for 1 hr at room temperature with gentle shaking. Blots were washed 2× in TBS (0.2% Tween-20), 30 min per wash. Blots were incubated with 1:1 mix of ECL reagents 1 & 2 (Amersham ECL Western Blotting Detection Reagent, cat. no. RPN2106) for 2 min at room temperature. Bands were visualized using a Protein Simple imager. Blots were then re-probed with a combination of anti-actin antibody (Sigma Monoclonal Mouse Anti-3-Actin (clone AC-15), cat. no. A5441) and secondary H1RP-conjugated antibody (Promega anti-Mouse IgG (H+L) HRP, cat. no. W4021) and similar steps were taken for incubation, wash, detection and visualization steps as above. The data was analyzed using Alpha View software. The densitometric reading for each sample band was normalized to that of the corresponding actin band per lane. Approximate % ITK remaining per sample was calculated as follows: […]
Once % ITK remaining has been calculated for each sample, groups are averaged together to show an means % ITK normalized to actin and relative to control.
Compounds 16, 17, and 18 were administered to mice orally. After 6 hours or 24 hours, splenocytes cells were harvested. ITK was evaluated by Western blotting. Plasma concentrations were determined by LC/MS/MS. Plasma samples were protein precipitated by addition of 100 μl of acetonitrile containing 50 ng/ml of internal standard. The resulting mixture was vortexed and centrifuged at 4000 RPM for 5 minutes. […]

Row | SMILES | ITK (%) 90 mpk PO, 6 h [%] | ITK (%) 90 mpk PO, 6 h (90 mg/kg) [%] | ITK degradation in vivo at 6 hours (FIG. 3A, FIG. 4A) (mice, oral, splenocytes, Western blot, 6 hours)
1 | C[C@@H](C(=O)N(C)c1ccc2cc(-c3n[nH]c4c3CCC(C)(C)C4)[nH]c2c1)N1CCN(C(=O)C2CN(C3CCN(c4ccc5c(c4)C(=O)N(C4CCC(=O)NC4=O)C5=O)CC3)C2)CC1 (stereo partly drawn) [Compound 34, (2S)—N-(2-(6,6-dimethyl-4,5,6,7-tetrahydro-1H-indazol-3-yl)-1H-indol-6-yl)-2-(4-(1-(1-(2-(2,6-dioxopiperidin-3-yl)-1,3-dioxoisoindolin-5-yl)piperidin-4-yl)azetidine-3-carbonyl)piperazin-1-yl)-N-methylpropanamide] | 108 | – | –
2 | C[C@@]12Cc3[nH]nc(C(=O)Nc4cnn(CC5CN(C(=O)C6CN(c7ccc(C8CCC(=O)NC8=O)cn7)C6)C5)c4)c3C[C@@H]1C2(F)F (stereo partly drawn) [Compound 49, (4aS,5aR)-N-(1-((1-(1-(5-(2,6-dioxopiperidin-3-yl)pyridin-2-yl)azetidine-3-carbonyl)azetidin-3-yl)methyl)-1H-pyrazol-4-yl)-5,5-difluoro-5a-methyl-1,4,4a,5,5a,6-hexahydrocyclopropa[f]indazole-3-carboxamide] | 129 | – | –
3 | CN(C(=O)CC[C@H]1CCN(c2ccc3c(c2)C(=O)N(C2CCC(=O)NC2=O)C3=O)C1)c1ccc2cc(-c3n[nH]c4c3C[C@@H]3C(F)(F)[C@]3(C)C4)[nH]c2c1 (stereo in doubt) [Compound 67, N-(2-((4aS,5aR)-5,5-difluoro-5a-methyl-1,4,4a,5,5a,6-hexahydrocyclopropafindazol-3-yl)-1H-indol-6-yl)-3-((3R)-1-(2-(2,6-dioxopiperidin-3-yl)-1,3-dioxoisoindolin-5-yl)pyrrolidin-3-yl)-N-methylpropanamide] | – | 190 | –
4 | C[C@@]12Cc3[nH]nc(C(=O)Nc4cnn(CC5CN(C(=O)C6CN(c7ccc8c(c7)C(=O)N(C7CCC(=O)NC7=O)C8=O)C6)C5)c4)c3C[C@@H]1C2(F)F (stereo partly drawn) [Compound 43, (4aS,5aR)-N-(1-((1-(1-(2-(2,6-dioxopiperidin-3-yl)-1,3-dioxoisoindolin-5-yl)azetidine-3-carbonyl)azetidin-3-yl)methyl)-1H-pyrazol-4-yl)-5,5-difluoro-5a-methyl-1,4,4a,5,5a,6-hexahydrocyclopropa[f]indazole-3-carboxamide] | 7 | – | degraded ITK in vivo
5 | CC1(C)CCc2c(-c3cc4ccc(N5CCC6(CCN(CC7CCN(c8ccc(C9CCC(=O)NC9=O)cn8)CC7)CC6)C5=O)cc4[nH]3)n[nH]c2C1 (stereo not drawn) [Compound 22, 3-(6-(4-((2-(2-(6,6-dimethyl-4,5,6,7-tetrahydro-1H-indazol-3-yl)-1H-indol-6-yl)-1-oxo-2,8-diazaspiro[4.5]decan-8-yl)methyl)piperidin-1-yl)pyridin-3-yl)piperidine-2,6-dione] | 76 | – | –

Further lines, results first:

Row | ITK (%) 90 mpk PO, 6 h [%] | ITK (%) 90 mpk PO, 6 h (90 mg/kg) [%] | ITK degradation in vivo at 6 hours (FIG. 3A, FIG. 4A) (mice, oral, splenocytes, Western blot, 6 hours) | SMILES
6 | 76 | – | – | CN(C(=O)CCC1CCN(c2ccc(C3CCC(=O)NC3=O)cn2)CC1)c1ccc2cc(-c3n[nH]c4c3C[C@@H]3C(F)(F)[C@]3(C)C4)[nH]c2c1 (stereo partly drawn) [Compound 21, N-(2-((4aS,5aR)-5,5-difluoro-5a-methyl-1,4,4a,5,5a,6-hexahydrocyclopropa[f]indazol-3-yl)-1H-indol-6-yl)-3-(1-(5-(2,6-dioxopiperidin-3-yl)pyridin-2-yl)piperidin-4-yl)-N-methylpropanamide]
7 | 67 | – | – | C[C@@H](C(=O)N(C)c1ccc2cc(-c3n[nH]c4c3CCC(C)(C)C4)[nH]c2c1)N1CCN(C[C@H]2CCN(c3ccc4c(c3)C(=O)N(C3CCC(=O)NC3=O)C4=O)C2)CC1 (stereo partly drawn) [Compound 33, (2S)—N-(2-(6,6-dimethyl-4,5,6,7-tetrahydro-1H-indazol-3-yl)-1H-indol-6-yl)-2-(4-(((3R)-1-(2-(2,6-dioxopiperidin-3-yl)-1,3-dioxoisoindolin-5-yl)pyrrolidin-3-yl)methyl)piperazin-1-yl)-N-methylpropanamide]
8 | 35 | – | – | Cn1c(=O)n([C@@H]2CCC(=O)NC2=O)c2cccc(N3CCC(CN4CCN(C(=O)c5ccc6cc(-c7n[nH]c8c7CCC(C)(C)C8)[nH]c6c5)CC4)CC3)c21 [Compound 48, (R)-3-(4-(4-((4-(2-(6,6-dimethyl-4,5,6,7-tetrahydro-1H-indazol-3-yl)-1H-indole-6-carbonyl)piperazin-1-yl)methyl)piperidin-1-yl)-3-methyl-2-oxo-2,3-dihydro-1H-benzo[d]imidazol-1-yl)piperidine-2,6-dione]
9 | 58 | – | – | C[C@@H](C(=O)N(C)c1ccc2cc(-c3n[nH]c4c3C[C@@H]3C(F)(F)[C@]3(C)C4)[nH]c2c1)N1CCN(CC2CCN(c3cccc4c3n(C)c(=O)n4C3CCC(=O)NC3=O)CC2)CC1 (stereo partly drawn) [Compound 65, (2S)—N-(2-((4aS,5aR)-5,5-difluoro-5a-methyl-1,4,4a,5,5a,6-hexahydrocyclopropa[f]indazol-3-yl)-1H-indol-6-yl)-2-(4-((1-(1-(2,6-dioxopiperidin-3-yl)-3-methyl-2-oxo-2,3-dihydro-1H-benzo[d]imidazol-4-yl)piperidin-4-yl)methyl)piperazin-1-yl)-N-methylpropanamide]
10 | 49.3 | – | – | C[C@@H](C(=O)N(C)c1ccc2cc(-c3n[nH]c4c3C[C@@H]3C(F)(F)[C@]3(C)C4)[nH]c2c1)N1CCN(C[C@H]2CCN(c3ccc4c(c3)C(=O)N(C3CCC(=O)NC3=O)C4=O)C2)CC1 (stereo partly drawn) [Compound 9, (2S)—N-(2-((4aS,5aR)-5,5-difluoro-5a-methyl-1,4,4a,5,5a,6-hexahydrocyclopropa[f]indazol-3-yl)-1H-indol-6-yl)-2-(4-(((3R)-1-(2-(2,6-dioxopiperidin-3-yl)-1,3-dioxoisoindolin-5-yl)pyrrolidin-3-yl)methyl)piperazin-1-yl)-N-methylpropanamide]
11 | 137 | – | – | CN(C(=O)CC1CCN(CC2CCN(c3ccc(C(=O)NC4CCC(=O)NC4=O)nc3)CC2)CC1)c1ccc2cc(-c3n[nH]c4c3C[C@@H]3C(F)(F)[C@]3(C)C4)[nH]c2c1 (stereo partly drawn) [Compound 75, 5-(4-((4-(2-((2-((4aS,5aR)-5,5-difluoro-5a-methyl-1,4,4a,5,5a,6-hexahydrocyclopropa[f]indazol-3-yl)-1H-indol-6-yl)(methyl)amino)-2-oxoethyl)piperidin-1-yl)methyl)piperidin-1-yl)-N-(2,6-dioxopiperidin-3-yl)picolinamide]
